In test [1] the test system is HTS (human telomere sequence) d[AG3(TTAG3)3] (DNA, G4) AGGGTTAGGGTTAGGGTTAGGG
Description: luminescence titration. The note with it: 200 mM KCl, 10 mM potassium phosphate, 1 mM K2EDTA, pH 7.0, 298 K, error ±20%.

Test [2] has the same test system. Description: NMR titration (chemical shifts, line broadening). The note with it: 50 mM NaCl, pH 7, 298 K.
Test [3] has the same test system. Description: NMR titration (chemical shifts, intermolecular NOEs). The note with it: 50 mM NaCl; pH 7, 283 K; binds at both loop ends.
Setting [4] is: 7 μM complex, one-set-of-sites fit.

Consider four compounds from article PMC3835060 (2013).

For `[Ru+2].[Ru+2].c1cnc2c(c1)c1nc3c4cccnc4c4ncccc4c3nc1c1cccnc12.c1cnc2c(c1)ccc1cccnc12.c1cnc2c(c1)ccc1cccnc12.c1cnc2c(c1)ccc1cccnc12.c1cnc2c(c1)ccc1cccnc12`, the Kb in test [1] (apparent, diastereomeric mixture) is on record as 1.77 × 10^7 M^–1.

On to `[Ru+2].[Ru+2].c1cnc2c(c1)c1nc3c4cccnc4c4ncccc4c3nc1c1cccnc12.c1cnc2c(c1)ccc1cccnc12.c1cnc2c(c1)ccc1cccnc12.c1cnc2c(c1)ccc1cccnc12.c1cnc2c(c1)ccc1cccnc12` [ΔΔ-2], for which the binding result in test [2] (binds mainly at lateral loop end) is given as “yes”. Also, the Kb in test [1] (setting [4]) is recorded as 2.95 × 10^5 M^–1.

As for `[Ru+2].[Ru+2].c1ccc(-c2ccccn2)nc1.c1ccc(-c2ccccn2)nc1.c1ccc(-c2ccccn2)nc1.c1ccc(-c2ccccn2)nc1.c1cnc2c(c1)c1nc3c4cccnc4c4ncccc4c3nc1c1cccnc12`, the binding result in test [3] is reported as “yes”.

With `[Ru+2].[Ru+2].c1cnc2c(c1)c1nc3c4cccnc4c4ncccc4c3nc1c1cccnc12.c1cnc2c(c1)ccc1cccnc12.c1cnc2c(c1)ccc1cccnc12.c1cnc2c(c1)ccc1cccnc12.c1cnc2c(c1)ccc1cccnc12` [ΛΛ-2], the binding result in test [2] (binds at both ends) is reported as “yes”. For the same compound, the Kb in test [1] (setting [4]) was 1.16 × 10^7 M^–1.
